What all share (assay): ScanEDGE kinase panel (DiscoverX)
What all share (format): binding

The target of one experiment is T1, PAK2 (Homo sapiens, UniProt Q13177).
T1 construct: T7 phage fusion (most kinases) or DNA tag for qPCR (kinases made in HEK-293); purchased DiscoverX; host or cells: E. coli BL21-derived host (T7 phage) or HEK-293
To be noted: read-out: % of control activity at 71 nM. In short, it runs like this:
(§1)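 Kinase fusions were grown as T7 phage in E. coli (MOI 0.4, 32° C to lysis) or produced in HEK-293 cells and tagged with DNA. Test compound then competed with bead-bound ligand, after which eluted kinase was measured by qPCR.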

The next experiment has as its target T2, EGFR (Homo sapiens, UniProt P00533).
T2 construct: T7 phage fusion (most kinases) or DNA tag for qPCR (HEK-293-made kinases); purchased DiscoverX (Fremont, CA); host or cells: E. coli BL21-derived host (T7 phage) or HEK-293
To be noted: read-out: % of control activity at 71 nM. In short, it runs like this:
as §1

In the next experiment the target is T3, PDGFRA (Homo sapiens, UniProt P16234).
T3 construct: T7 phage fusion (most kinases) or DNA tag for qPCR (kinases made in HEK-293); purchased DiscoverX; host or cells: E. coli BL21-derived host (T7 phage) or HEK-293
T3 sequence (P16234 24-1089): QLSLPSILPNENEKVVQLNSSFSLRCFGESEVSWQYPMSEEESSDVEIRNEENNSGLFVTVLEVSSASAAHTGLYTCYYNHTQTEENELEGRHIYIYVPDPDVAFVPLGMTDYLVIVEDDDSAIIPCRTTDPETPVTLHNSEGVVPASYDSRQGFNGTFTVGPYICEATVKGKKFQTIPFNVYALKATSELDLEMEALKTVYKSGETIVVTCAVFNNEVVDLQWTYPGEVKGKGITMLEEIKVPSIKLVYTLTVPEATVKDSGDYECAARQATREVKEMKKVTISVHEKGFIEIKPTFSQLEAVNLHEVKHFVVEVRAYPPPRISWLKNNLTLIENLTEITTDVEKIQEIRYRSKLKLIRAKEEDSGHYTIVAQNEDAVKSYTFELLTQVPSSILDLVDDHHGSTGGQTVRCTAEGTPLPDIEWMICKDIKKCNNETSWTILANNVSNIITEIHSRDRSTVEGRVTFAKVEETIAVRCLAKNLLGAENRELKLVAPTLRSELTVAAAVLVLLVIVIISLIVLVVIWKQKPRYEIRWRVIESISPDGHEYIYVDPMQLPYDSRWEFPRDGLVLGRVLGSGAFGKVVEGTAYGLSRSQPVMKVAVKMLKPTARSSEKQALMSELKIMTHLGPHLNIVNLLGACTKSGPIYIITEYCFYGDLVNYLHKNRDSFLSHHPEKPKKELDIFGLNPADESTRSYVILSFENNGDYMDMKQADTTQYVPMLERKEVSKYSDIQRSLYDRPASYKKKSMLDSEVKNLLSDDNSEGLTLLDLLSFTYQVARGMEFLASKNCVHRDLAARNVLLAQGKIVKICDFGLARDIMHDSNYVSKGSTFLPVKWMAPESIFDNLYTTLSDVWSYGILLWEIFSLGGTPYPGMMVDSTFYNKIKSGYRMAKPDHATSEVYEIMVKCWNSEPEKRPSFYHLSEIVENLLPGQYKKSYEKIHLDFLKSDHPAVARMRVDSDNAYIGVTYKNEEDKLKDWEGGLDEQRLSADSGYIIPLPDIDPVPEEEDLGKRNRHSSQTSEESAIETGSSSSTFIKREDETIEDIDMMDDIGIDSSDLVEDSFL
The settings on record: read-out: % of control activity at 71 nM. In short, it runs like this:
as §1

The target in another experiment is T4, PIM3 (Homo sapiens, UniProt Q86V86).
T4 construct: T7 phage fusion (most kinases) or DNA tag for qPCR (kinases made in HEK-293); purchased DiscoverX; host or cells: E. coli BL21-derived host (T7 phage) or HEK-293
The settings on record: read-out: % of control activity at 71 nM. The method, boiled down:
as §1

The target of another experiment is T5, SIK (SIK1) (Homo sapiens, UniProt P57059).
T5 construct: T7 phage fusion (most kinases) or DNA tag after HEK-293 expression; purchased DiscoverX (Fremont, CA), ScanEDGE; host or cells: T7 phage in E. coli BL21-derived host, or HEK-293
To be noted: SIK refers to SIK1, read-out: % of control activity at 71 nM. In short, it runs like this: as §1

The next experiment has as its target T6, QSK (SIK3) (Homo sapiens, UniProt Q9Y2K2).
T6 construct: T7 phage fusion (most kinases) or DNA tag after HEK-293 expression; purchased DiscoverX (Fremont, CA), ScanEDGE; host or cells: T7 phage in E. coli BL21-derived host, or HEK-293
To be noted: QSK refers to SIK3, read-out: % of control activity at 71 nM. In short, it runs like this: as §1

Another experiment has as its target T7, BRSK1 (Homo sapiens, UniProt Q8TDC3).
T7 construct: T7 phage fusion (most kinases) or DNA tag for qPCR (HEK-293-made kinases); purchased DiscoverX (Fremont, CA); host or cells: E. coli BL21-derived host (T7 phage) or HEK-293
The settings on record: read-out: % of control activity at 71 nM. The method, boiled down:
as §1

The target of another experiment is T8, ALK (Homo sapiens, UniProt Q9UM73).
T8 construct: T7 phage fusion (most kinases) or DNA tag for qPCR (HEK-293-made kinases); purchased DiscoverX (Fremont, CA); host or cells: E. coli BL21-derived host (T7 phage) or HEK-293
T8 sequence (Q9UM73 19-1620): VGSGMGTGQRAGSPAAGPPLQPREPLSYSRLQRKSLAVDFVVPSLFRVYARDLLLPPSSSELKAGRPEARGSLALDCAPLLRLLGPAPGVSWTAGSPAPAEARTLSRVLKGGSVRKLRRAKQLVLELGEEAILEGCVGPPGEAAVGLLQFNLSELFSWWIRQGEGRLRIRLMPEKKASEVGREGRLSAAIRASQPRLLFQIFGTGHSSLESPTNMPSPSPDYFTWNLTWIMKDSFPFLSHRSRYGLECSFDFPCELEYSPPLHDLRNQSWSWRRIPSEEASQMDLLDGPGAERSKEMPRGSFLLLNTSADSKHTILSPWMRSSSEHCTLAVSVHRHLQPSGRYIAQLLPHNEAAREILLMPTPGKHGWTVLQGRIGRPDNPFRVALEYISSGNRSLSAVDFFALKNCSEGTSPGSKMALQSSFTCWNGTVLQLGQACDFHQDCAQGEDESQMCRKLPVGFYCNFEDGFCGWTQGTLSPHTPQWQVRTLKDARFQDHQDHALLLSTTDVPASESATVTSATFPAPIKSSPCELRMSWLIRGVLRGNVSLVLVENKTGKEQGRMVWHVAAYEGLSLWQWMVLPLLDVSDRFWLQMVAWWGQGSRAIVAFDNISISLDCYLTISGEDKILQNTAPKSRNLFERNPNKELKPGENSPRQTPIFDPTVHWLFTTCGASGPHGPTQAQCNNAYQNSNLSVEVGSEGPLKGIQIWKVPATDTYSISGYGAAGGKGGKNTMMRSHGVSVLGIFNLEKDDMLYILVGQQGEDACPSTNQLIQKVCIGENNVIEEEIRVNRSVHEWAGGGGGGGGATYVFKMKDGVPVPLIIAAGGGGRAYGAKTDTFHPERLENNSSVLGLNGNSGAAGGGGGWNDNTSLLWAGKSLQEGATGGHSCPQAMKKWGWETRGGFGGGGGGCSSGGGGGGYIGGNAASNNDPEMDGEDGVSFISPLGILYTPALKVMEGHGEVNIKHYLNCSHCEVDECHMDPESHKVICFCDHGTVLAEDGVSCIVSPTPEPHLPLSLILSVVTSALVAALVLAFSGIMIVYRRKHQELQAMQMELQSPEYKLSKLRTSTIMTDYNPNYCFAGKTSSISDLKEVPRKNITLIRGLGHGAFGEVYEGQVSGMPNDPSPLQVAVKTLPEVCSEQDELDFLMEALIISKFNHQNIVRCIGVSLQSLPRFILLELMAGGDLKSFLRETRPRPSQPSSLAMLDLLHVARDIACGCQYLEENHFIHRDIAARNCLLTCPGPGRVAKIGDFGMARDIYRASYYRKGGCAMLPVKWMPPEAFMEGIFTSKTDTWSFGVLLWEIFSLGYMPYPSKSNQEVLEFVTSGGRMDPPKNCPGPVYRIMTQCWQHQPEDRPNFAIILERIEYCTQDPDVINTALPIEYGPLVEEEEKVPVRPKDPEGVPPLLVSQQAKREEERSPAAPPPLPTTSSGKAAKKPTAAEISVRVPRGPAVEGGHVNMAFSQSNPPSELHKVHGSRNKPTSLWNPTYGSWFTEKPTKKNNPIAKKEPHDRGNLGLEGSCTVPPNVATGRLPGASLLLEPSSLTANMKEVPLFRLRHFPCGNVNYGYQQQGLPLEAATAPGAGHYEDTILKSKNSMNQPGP
The settings on record: read-out: % of control activity at 71 nM. In short, it runs like this: as §1

The target of another experiment is T9, PAK4 (Homo sapiens, UniProt O96013).
T9 construct: T7 phage fusion (most kinases) or DNA tag for qPCR (kinases made in HEK-293); purchased DiscoverX; host or cells: E. coli BL21-derived host (T7 phage) or HEK-293
To be noted: read-out: % of control activity at 71 nM. The method, boiled down: as §1

In a further experiment the target is T10, PDGFRB (Homo sapiens, UniProt P09619).
T10 construct: T7 phage fusion (most kinases) or DNA tag for qPCR (kinases made in HEK-293); purchased DiscoverX; host or cells: E. coli BL21-derived host (T7 phage) or HEK-293
To be noted: read-out: % of control activity at 71 nM. In short, it runs like this: as §1

T2 sequence (P00533 25-1210): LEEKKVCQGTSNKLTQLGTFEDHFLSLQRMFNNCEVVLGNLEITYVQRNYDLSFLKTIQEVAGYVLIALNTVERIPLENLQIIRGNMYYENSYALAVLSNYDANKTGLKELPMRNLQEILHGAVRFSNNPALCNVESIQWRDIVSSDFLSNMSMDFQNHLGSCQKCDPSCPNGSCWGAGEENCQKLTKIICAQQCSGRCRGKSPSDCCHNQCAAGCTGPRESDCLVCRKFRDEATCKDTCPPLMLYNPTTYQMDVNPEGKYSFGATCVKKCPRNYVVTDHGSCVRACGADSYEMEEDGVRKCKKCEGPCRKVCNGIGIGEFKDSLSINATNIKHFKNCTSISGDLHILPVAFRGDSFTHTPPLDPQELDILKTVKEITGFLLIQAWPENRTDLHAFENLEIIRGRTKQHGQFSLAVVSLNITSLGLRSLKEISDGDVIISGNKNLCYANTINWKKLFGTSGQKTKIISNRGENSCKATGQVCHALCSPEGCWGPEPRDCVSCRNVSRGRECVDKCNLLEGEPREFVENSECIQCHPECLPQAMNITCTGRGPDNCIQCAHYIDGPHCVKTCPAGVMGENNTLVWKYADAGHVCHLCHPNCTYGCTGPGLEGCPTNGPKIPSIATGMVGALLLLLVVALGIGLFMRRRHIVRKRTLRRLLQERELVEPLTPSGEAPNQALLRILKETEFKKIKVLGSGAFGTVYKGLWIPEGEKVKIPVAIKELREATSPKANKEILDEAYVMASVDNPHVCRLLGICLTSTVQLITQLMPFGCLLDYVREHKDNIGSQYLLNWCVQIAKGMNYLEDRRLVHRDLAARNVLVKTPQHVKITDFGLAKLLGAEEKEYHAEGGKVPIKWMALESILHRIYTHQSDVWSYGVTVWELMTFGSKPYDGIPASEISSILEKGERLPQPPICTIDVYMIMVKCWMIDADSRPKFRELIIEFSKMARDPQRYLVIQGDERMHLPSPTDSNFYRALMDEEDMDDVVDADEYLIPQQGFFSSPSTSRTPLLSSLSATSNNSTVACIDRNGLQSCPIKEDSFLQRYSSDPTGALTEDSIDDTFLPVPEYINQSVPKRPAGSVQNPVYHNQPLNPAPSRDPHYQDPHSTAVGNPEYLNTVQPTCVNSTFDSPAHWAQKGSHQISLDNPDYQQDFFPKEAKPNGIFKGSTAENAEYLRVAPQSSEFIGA
T7 sequence (Q8TDC3 whole entry, the tested form may be a part): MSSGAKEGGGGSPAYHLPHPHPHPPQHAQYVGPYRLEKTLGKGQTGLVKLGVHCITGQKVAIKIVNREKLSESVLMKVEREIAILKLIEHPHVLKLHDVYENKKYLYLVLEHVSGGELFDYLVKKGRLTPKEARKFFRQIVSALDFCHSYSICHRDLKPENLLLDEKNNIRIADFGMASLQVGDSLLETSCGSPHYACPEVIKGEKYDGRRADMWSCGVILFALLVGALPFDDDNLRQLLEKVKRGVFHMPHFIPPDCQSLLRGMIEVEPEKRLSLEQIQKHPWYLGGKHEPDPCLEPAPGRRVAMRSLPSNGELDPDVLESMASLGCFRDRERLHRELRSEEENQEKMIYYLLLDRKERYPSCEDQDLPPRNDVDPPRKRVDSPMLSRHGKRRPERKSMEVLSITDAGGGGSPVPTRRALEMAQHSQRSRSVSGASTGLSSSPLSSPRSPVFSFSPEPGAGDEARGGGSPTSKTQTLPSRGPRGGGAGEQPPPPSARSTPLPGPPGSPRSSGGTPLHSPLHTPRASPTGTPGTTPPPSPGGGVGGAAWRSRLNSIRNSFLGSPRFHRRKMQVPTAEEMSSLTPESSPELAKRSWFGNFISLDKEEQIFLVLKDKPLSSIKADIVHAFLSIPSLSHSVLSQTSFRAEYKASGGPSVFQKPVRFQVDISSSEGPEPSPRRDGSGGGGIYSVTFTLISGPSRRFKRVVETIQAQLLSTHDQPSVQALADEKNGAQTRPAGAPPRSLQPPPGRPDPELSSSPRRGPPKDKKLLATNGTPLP

Consider `COc1ccc(N2C(=O)N(c3c(C)cccc3C)Cc3cnc(Nc4ccc(C5CCN(C)CC5)c(OC)c4)nc32)c(OC)c1` [YKL-05-093], for which the remaining binding at 0.071 µM on PAK2 turned out to be 75%; on EGFR, 5.9%; on PDGFRA it was 11%; on PIM3, 84%; on SIK (SIK1), 0.6%; at QSK (SIK3), 5.3%. Moreover, the remaining binding at 0.071 µM was found to be 74% at BRSK1, 23% on ALK, 88% at PAK4 and 0.35% at PDGFRB.

These data come from patent publication US12121521B2, “Uses of salt-inducible kinase (SIK) inhibitors for treating osteoporosis” (The General Hospital Corporation, priority 2016, dated 2024).
